The test system of series [1] is subjects with IBS of the constipation-predominant and alternating types. The following applies: 1 mg twice daily for 8 weeks; 25 subjects; cited from earlier work.
The test system of a further series is patients with IBS. The following applies: 0.4 mg intravenously; 50 patients; versus placebo; cited from earlier work.
For series [2], the system named is normal subjects. Briefly: Adverse effects during repeated intravenous dosing. Format: in vivo, human. The following applies: 12 doses of 0.3 mg/kg every 6 hours intravenous. The procedure:
(§1) With approval from the Institutional Review Board, 12 normal subjects (8 males and 4 non-pregnant females) participated in a controlled trial. The mean age was 29.3±5.8 (mean+/−standard deviation [SD]) years. […] Subjects were administered 12 consecutive doses of methylnaltrexone at a dosage rate of 0.3 mg/kg every 6 hours via intravenous injection. Methylnaltrexone was dissolved in isotonic saline for administration in this study. No other excipients were present in the administered solution. Oral-cecal transit time was measured prior to the first dose and after the last dose, following repeated dosing for 3 days, using a lactulose hydrogen breath test (Yuan, C. S., et al., Clin. Pharmacol. Ther. 1996;59:469-475). A subjective rating test for possible opioid agonist effects was also employed (Yuan, C. S., et al., Drug Alcohol Dependence 1998;52:161-165). […] The reduction in the means was statistically significant at the level of P<0.05 using the paired t-test and the Wilcoxon signed rank test. […] The absence of statistically significant changes in overall subjective opioid ratings is consistent with the lack of penetration into the central nervous system by methylnaltrexone.

For series [3] the following is noted: white crystalline powder; cited from earlier work.
In series [4] the test system is normal subjects. Briefly: Oral-cecal transit time by lactulose hydrogen breath test. Format: in vivo, human. The following applies: 12 doses of 0.3 mg/kg every 6 hours intravenous; 12 normal subjects not receiving opioids; mean±SD; baseline mean 101.3±29.4 minutes; P<0.05. The procedure:
as §1

In series [5] the test system is patients with constipation-predominant IBS. As to conditions: 16 mg three times a week over eight weeks, cited from earlier work.

Each structure is given as a SMILES string.

For the compound `C=CCN1CC[C@]23c4c5ccc(O)c4O[C@H]2C(=O)CC[C@@]3(O)[C@H]1C5` [naloxone], in series [1], the “adequate symptom relief versus placebo” value is given as “not statistically significantly different”; the “subjective ratings such as severity ratings and pain scores” value is recorded as “Marginal but non-statistically significant improvements”. Further, the “degree of muscle spasm and relative intensity of pain” value in the series on patients with IBS is “not associated with any objective or subjective evidence of beneficial effect”.

On to `C[N@+]1(CC2CC2)CC[C@]23c4c5ccc(O)c4O[C@H]2C(=O)CC[C@@]3(O)[C@H]1C5` [methylnaltrexone, N-methyl-naltrexone bromide], for which the adverse effects result in the series on normal subjects [2] is “No significant adverse effects”. Moreover, in series [3], the solubility in water entry is reported as “freely soluble in water”. Also, in the series on normal subjects [4], the “oral-cecal transit time after 3 days of treatment” value came out at 82.5 ± 20.7 min.

`C=C1CCC2(O)C3Cc4ccc(OC5OC(C(=O)O)C(O)C(O)C5O)c5c4C2(CCN3CC2CC2)C1O5` (stereo not shown) [nalmefene glucuronide]: in series [5] (patient reported), the gut transit time result is listed as “decreased” and the stool frequency entry is listed as “increased”. In series [5], the “abdominal pain or bloating” value is reported as “did not reduce” and the stool consistency entry is “not improved”.

The record behind these values is patent US20050004155A1, “Use of methylnaltrexone to treat irritable bowel syndrome” (priority 2003, published 2005).
